# Experimental data from ChEMBL document CHEMBL1862790, “Optimisation of fenarimol series for the treatment of Chagas disease”.
# Where “and” joins values, the source holds several entries; their conditions need not be identical. Equal entries are not always repeated.
# Experiments:
# [1] = DNDI: Cytotoxicity against L-6 rat myoblasts from skeletal muscle cells; conditions: L6 rat skeletal muscle myoblast cells
# Trypanosoma cruzi [2] = assay: microbe, parasite or virus in culture; assay type: functional, organism-based, Tulahuen LacZ, Clone C4
# Trypanosoma cruzi [3] = assay: microbe, parasite or virus in culture; assay type: functional, Tulahuen LacZ, Clone C4
# [4] = Trypanosoma cruzi, Tulahuen LacZ, Clone C4
IC50 (Trypanosoma cruzi [2]; [4]) [nM],IC90 (Trypanosoma cruzi [3]; [4]) [nM],IC90 (Trypanosoma cruzi [3]),IC50 (Trypanosoma cruzi [2]),SMILES,IC50 ([1]; IC50) [nM],IC50 [1] [nM]
1060,,,,OC(c1cncnc1)(c1ccccc1Cl)c1ccccc1Cl,> 100000,
14500,,,,[O-][n+]1cncc(C(O)(c2ccc(Cl)cc2)c2ccccc2Cl)c1 (stereo unspecified),> 100000,
90,10000,,,COC(c1ccc(Cl)cc1)(c1cccnc1)c1ccccc1Cl (stereo unspecified),,
58500,,,,CC1(C)CC(=O)C(C(=O)c2ccc(Cl)cc2Cl)C(=O)C1,76500,
> 1000,,,,CON=C(Cc1ccc(OC)cc1)c1ccc(OC)c(OC)c1OC,92300,
20,,46 nM and 96 nM,36.5 nM,Cc1noc(C)c1C(=O)N1CCC(NC(c2ccc(C(F)(F)F)cc2)c2cccnc2)CC1 (stereo unspecified),> 100000,
,960,820 nM and 930 nM and 520 nM,490 nM [middle of 4 runs],CC(=O)N1CCN(C(c2ccc(Cl)cc2)c2cccnc2)CC1 (stereo unspecified),> 100000,
77,,,,OC(c1ccc(Cl)cc1)(c1cccnc1)c1ccc(Cl)s1 (stereo unspecified),50000,
48,402,207 nM,61 nM,CC(C)(C)NC(=O)N1CCC(NC(c2ccc(C(F)(F)F)cc2)c2cccnc2)CC1 (stereo unspecified),> 100000,
> 1000,,,,CON=C(Cc1ccccc1)c1ccc(OC)cc1,> 100000,
> 1000,,,,CON=C(Cc1ccccc1C(=O)O)c1ccc(Cl)cc1,> 100000,
,,> 1000 nM,680 nM,CC(C)C(=O)N1CCN(C(c2ccc(Cl)cc2)c2cncnc2)CC1 (stereo unspecified),,
,,910 nM,360 nM,CS(=O)(=O)N1CCC(CNC(c2ccc(C(F)(F)F)cc2)c2cnccn2)CC1 (stereo unspecified),,
180,,306 nM and 614 nM,171 nM,O=C(C1CC1)N1CCN(C(c2cncnc2)c2ccc(Cl)cc2F)CC1 (stereo unspecified),> 100000,
,,160 nM and 110 nM,35 nM and 46 nM,CS(=O)(=O)N1CCN(C(c2cccnc2)c2ccc(Cl)cc2F)CC1 (stereo unspecified) [listing 1 of 2 here],> 100000,
,,100 nM and 320 nM,30 nM and 78 nM,NC(=O)c1cccc(C(O)(c2ccc(Cl)cc2)c2cccnc2)c1 (stereo unspecified),> 100000,
,,> 1000 nM,640 nM,O=C(C1CC1)N1CCC(NC(c2ccc(C(F)(F)F)cc2)c2cnccn2)CC1 (stereo unspecified),,
> 1000,,,,CON=C(c1ccc(Cl)cc1)C1(c2ccccc2C(=O)O)CC1,> 100000,
393,60000,,,COc1ccc(C(O)(c2cncnc2)c2ccccc2Cl)cc1 (stereo unspecified),70900,

IC50 (Trypanosoma cruzi [2]; [4]) [nM],IC90 (Trypanosoma cruzi [3]; [4]) [nM],IC90 (Trypanosoma cruzi [3]),IC50 (Trypanosoma cruzi [2]),SMILES,IC50 ([1]; IC50) [nM],IC50 [1] [nM]
660,> 1000,1290 nM,575 nM,O=C(NC1CCN(C(c2ccc(C(F)(F)F)cc2)c2cnccn2)CC1)C1CC1 (stereo unspecified),> 100000,
,,339 nM and 850 nM,163 nM and 480 nM,OC(c1ccc(Cl)cc1)(c1cccnc1)c1cnc(Cl)nc1 (stereo unspecified),> 100000,
4.5,12,15.5 nM,4 nM,N#Cc1ccc(C(c2cccnc2)N2CCC(NC(=O)c3ccccc3C(F)(F)F)CC2)cc1 (stereo unspecified),> 100000,
21.5,48,55.5 nM,18.5 nM,N#Cc1ccc(C(c2cccnc2)N2CCC(NC(=O)c3c(F)cccc3F)CC2)cc1 (stereo unspecified),> 100000,
> 1000,,,,OC(Cc1ccc(Cl)nc1)c1ccc(Cl)cc1 (stereo unspecified),> 100000,
> 1000,,,,CON=C(Cc1ccccc1)c1ccc(F)cc1,,
2510,70000,,,OC(c1ccccc1)(c1cncnc1)c1ccccc1Cl (stereo unspecified),> 100000,
,,380 nM and 167 nM,85 nM and 45.3 nM,CS(=O)(=O)N1CCN(C(c2cccnc2)c2ccc(Cl)cc2F)CC1 (stereo unspecified) [listing 2 of 2 here],,
58,130,97.5 nM,46.5 nM,Cc1cc(C(=O)NC2CCN(C(c3ccc(C#N)cc3)c3cccnc3)CC2)n(C)n1 (stereo unspecified),> 100000,
12,32,33 nM,18 nM,N#Cc1ccc(C(O)(c2ccc(C(F)(F)F)cc2)c2cccnc2)cc1 (stereo unspecified),63300,
,,,110 nM,O=C(C1CC1)N1CCC(NC(c2ccc(Cl)cc2)c2cccnc2)CC1 (stereo unspecified),,
1070,80000,,,Clc1ccc(C(c2cncnc2)c2ccccc2Cl)cc1 (stereo unspecified),> 100000,
1140,8700,,,COc1ccccc1C(O)(c1ccc(Cl)cc1)c1cncnc1 (stereo unspecified),> 100000,
67,218,180 nM,58 nM,Cc1ncsc1C(=O)N1CCC(NC(c2ccc(C(F)(F)F)cc2)c2cccnc2)CC1 (stereo unspecified),> 100000,
444,724,850 nM,390 nM,CS(=O)(=O)N1CCN(C(c2cncnc2)c2ccc(Cl)cc2F)CC1 (stereo unspecified),> 100000,
7.5,,12.5 nM and 29 nM,8.25 nM,N#Cc1cccc(OC2CCN(C(c3ccc(C(F)(F)F)cc3)c3cccnc3)CC2)c1 (stereo unspecified),,
462,,,,OC(c1ccccc1)(c1ccc(Cl)cc1)c1cncnc1 (stereo unspecified),> 100000,
641,,,,OC(c1ccc(F)cc1)(c1ccc(Cl)cc1)c1cncnc1 (stereo unspecified),> 100000,
67500,,,,C#CCOC(=O)[C@@H](C)Oc1ccc(Oc2ncc(Cl)cc2F)cc1 [CLODINAFOP PROPARGYL],> 100000,

SMILES,IC50 (Trypanosoma cruzi [2]; [4]) [nM],IC90 (Trypanosoma cruzi [3]; [4]) [nM],IC90 (Trypanosoma cruzi [3]),IC50 (Trypanosoma cruzi [2]),IC50 ([1]; IC50) [nM],IC50 [1] [nM]
OC(c1ccc(Cl)cc1)(c1cccnc1)c1ccc(Br)cc1F (stereo unspecified),27,120,,,,
OC(c1ccc(Cl)cc1)(c1cccnc1)c1ccc(Cl)cc1F (stereo unspecified),14,31,32 nM,19 nM,,> 100000
CC(C)c1ccc(C(O)(c2ccc(C(F)(F)F)cc2)c2cccnc2)cc1 (stereo unspecified),2,7,,,,
CC(C)Oc1ccccc1C(O)(c1ccc(Cl)cc1)c1cccnc1 (stereo unspecified),446,820,,,,
OC(c1cccnc1)(c1cccc(F)c1)c1ccccc1Cl (stereo unspecified),558,> 1000,,752 nM,,> 100000
OC(c1ccc(Cl)cc1)(c1cccnc1)c1ccccc1F (stereo unspecified),54,152,179 nM,34.8 nM,,> 100000
O=[N+]([O-])c1ccc(O/N=C/c2cc(Br)c(O)c(Br)c2)c([N+](=O)[O-])c1,23900,,,,,83600
OC(c1ccc(Cl)cc1)(c1ccccn1)c1ccccc1Cl (stereo unspecified),27400,90000,,,,> 100000
OC(c1ccc(Cl)cc1)(c1cccnc1)c1cccc(F)c1 (stereo unspecified),100,330,,,,
COc1ccc(C(O)(c2cncnc2)C2CC2)cc1 (stereo unspecified),20900,62500,,,,> 100000
Clc1ccc(C(c2ccc(Cl)cc2)c2cccnc2)cc1,80,1600,,,,
OC(c1ccc(Cl)cc1)(c1cncnc1)c1ccccc1Cl (stereo unspecified) [FENARIMOL],250,560,,,,
CC(Oc1ccc(Oc2nc3ccc(Cl)cc3o2)cc1)C(=O)O (stereo unspecified) [FENOXAPROP],> 100000,,,,,> 100000
CNC1=C(c2cccc(C(F)(F)F)c2)C(=O)C(c2ccccc2)O1 (stereo unspecified) [FLURTAMONE],55500,,,,,82800
CON(C)C(=O)Nc1ccc(Br)cc1 [METOBROMURON],71800,,,,,> 100000
CC(Oc1ccc(Cl)cc1Cl)C(=O)O (stereo not drawn) [RAC-DICHLORPROP],74000,,,,,> 100000
Oc1cc(Cl)ccc1Oc1ccc(Cl)cc1Cl [TRICLOSAN],53000,,,,,82200
